{"source": "patent US20240228927A1", "about": "“MICROFLUIDIC PLATFORM FOR DETECTION OF LIVER INJURY” (Javelin Biotech, Inc., priority 2023, published 2024)", "data": [{"system": "liver", "experiment": "not given", "settings": "BSEP / mitochondrial toxicity relative to the paired liver toxicant; cited from earlier work", "values": [{"compound": "O=C1CC2(CCCC2)CC(=O)N1CCCCN1CCN(c2ncccn2)CC1", "note": "[Buspirone]", "Comparator characteristic": "Less BSEP"}]}, {"system": "liver", "experiment": "not given", "settings": "in vivo; cited from earlier work", "values": [{"compound": "N[C@@H]1[C@H]2CN(c3nc4c(cc3F)c(=O)c(C(=O)O)cn4-c3ccc(F)cc3F)C[C@@H]12", "note": "[Trovafloxacin]", "DILI presentation (Liver toxicant)": "Acute liver"}, {"compound": "Mipomersen", "DILI presentation (Liver toxicant)": "ALT elevations", "Mechanism of toxicity": "Lipid"}, {"compound": "O=c1[nH]c(=O)n(C2OC(CO)C(O)C2F)cc1I", "note": "(stereo not shown) [FIRU]", "DILI presentation (Less toxic comparator)": "No DILI"}]}, {"system": "liver", "experiment": "not given", "settings": "less toxic comparator of Table 1; cited from earlier work", "values": [{"compound": "Cc1cc2c(s1)Nc1ccccc1N=C2N1CCN(C)CC1", "note": "[Olanzapine]", "DILI presentation (Less toxic comparator)": "No DILI"}, {"compound": "O=C1CC2(CCCC2)CC(=O)N1CCCCN1CCN(c2ncccn2)CC1", "note": "[Buspirone]", "DILI presentation (Less toxic comparator)": "No/low"}, {"compound": "CCN(CC)C(=O)/C(C#N)=C/c1cc(O)c(O)c([N+](=O)[O-])c1", "note": "[Entacapone]", "DILI presentation (Less toxic comparator)": "Low DILI"}, {"compound": "CCc1ccc(CCOc2ccc(CC3SC(=O)NC3=O)cc2)nc1", "note": "(stereo not shown) [Pioglitazone]", "DILI presentation (Less toxic comparator)": "Low DILI"}, {"compound": "COC(c1ccccc1)(c1ccccc1)[C@H](Oc1nc(C)cc(C)n1)C(=O)O", "note": "[Ambrisentan]", "DILI presentation (Less toxic comparator)": "Minimal"}]}, {"system": "liver", "experiment": "not given", "settings": "liver toxicant of Table 1; cited from earlier work", "values": [{"compound": "CC[C@H]1OC(=O)[C@H](C)C(=O)[C@H](C)[C@@H](O[C@@H]2O[C@H](C)C[C@H](N(C)C)[C@H]2O)[C@](C)(OC)C[C@@H](C)C(=O)[C@H](C)[C@H]2N(CCCCn3cnc(-c4cccnc4)c3)C(=O)O[C@]12C", "note": "[Telithromycin]", "DILI presentation (Liver toxicant)": "ALT elevations", "Mechanism of toxicity": "Bile acid"}, {"compound": "Cc1cc2c(cc1CC(=O)c1sccc1S(=O)(=O)Nc1onc(C)c1Cl)OCO2", "note": "[Sitaxsentan]", "DILI presentation (Liver toxicant)": "ALT elevations", "Mechanism of toxicity": "Reactive"}, {"compound": "N[C@@H]1[C@H]2CN(c3nc4c(cc3F)c(=O)c(C(=O)O)cn4-c3ccc(F)cc3F)C[C@@H]12", "note": "[Trovafloxacin]", "Mechanism of toxicity": "Immune-"}, {"compound": "Cc1ccc(C(=O)c2cc(O)c(O)c([N+](=O)[O-])c2)cc1", "note": "[Tolcapone]", "DILI presentation (Liver toxicant)": "ALT elevations;", "Mechanism of toxicity": "Reactive"}, {"compound": "CC(c1cc2ccccc2s1)N(O)C(N)=O", "note": "(stereo not shown) [Zileuton]", "DILI presentation (Liver toxicant)": "ALT elevations", "Mechanism of toxicity": "Reactive"}, {"compound": "O=c1[nH]c(=O)n([C@@H]2O[C@H](CO)[C@@H](O)[C@@H]2F)cc1I", "note": "[Fialuridine]", "DILI presentation (Liver toxicant)": "Liver failure", "Mechanism of toxicity": "Mitochondrial"}, {"compound": "CCc1nn(CCCN2CCN(c3cccc(Cl)c3)CC2)c(=O)n1CCOc1ccccc1", "note": "[Nefazodone]", "DILI presentation (Liver toxicant)": "Liver failure", "Mechanism of toxicity": "Reactive"}, {"compound": "Cc1c(C)c2c(c(C)c1O)CCC(C)(COc1ccc(CC3SC(=O)NC3=O)cc1)O2", "note": "(stereo not shown) [Troglitazone]", "DILI presentation (Liver toxicant)": "ALT, bilirubin", "Mechanism of toxicity": "Reactive"}, {"compound": "CN1CCN(C2=Nc3cc(Cl)ccc3Nc3ccccc32)CC1", "note": "[Clozapine]", "Mechanism of toxicity": "Reactive"}, {"compound": "C=C[C@@H]1C[C@]1(NC(=O)[C@@H]1C[C@@H](Oc2ncc(OC)c3ccc(Cl)cc23)CN1C(=O)[C@@H](NC(=O)OC(C)(C)C)C(C)(C)C)C(=O)NS(=O)(=O)C1CC1", "note": "[Asunaprevir]", "DILI presentation (Liver toxicant)": "ALT elevations"}]}, {"system": "not given", "experiment": "not given", "settings": "clinically observed, human plasma; cited from earlier work", "units": {"Cmax": "µM"}, "values": [{"compound": "O=C(O)Cc1ccccc1Nc1c(Cl)cccc1Cl", "note": "[Diclofenac]", "Cmax": "4 to 10"}]}, {"system": "in vitro liver tissue", "experiment": "mitochondrial stress test: on-chip oxygen consumption rate (OCR) of liver tissue", "format": "cell-based, human", "settings": "oligomycin 1 μM, FCCP 0.3 μM, rotenone 1 μM with antimycin A 0.5 μM, 30 min each; matured tissue on chip", "description": "The microfluidic chip 100 and control system perform measurements of the oxygen consumption rate of in vitro liver tissue as a readout of mitochondrial function.\nOxygen sensing is achieved by combining a disposable oxygen sensor spot with an oxygen sensing meter. The meter provides an optical excitation signal to the sensor spot and measures the emitted light from the sensor spot. The light emitted by the sensor spot is influenced by a partial pressure of oxygen in fluid in contact with the sensor spot. Two sensor spots are placed in the primary flow path either side of the tissue culture area to measure the oxygen consumption of the tissue. The meters in the control module are placed such that they can measure the oxygen sensor values during normal operation.\nThe microfluidic chip 100 performs quantification of cellular respiration to assess mitochondrial function. […] To assess the sensitivity of the oxygen sensors 124a-b and on-chip OCR estimates, the microfluidic chip 100 performs a mitochondrial stress test. After cells are seeded on chips (e.g., 4 per treatment), tissue is matured (˜5-7 days), and basal OCR is established, oligomycin (1 μM & 30 min), which blocks proton translocation through complex V and represses ATP and OCR, are administered to the chips and OCR are assessed continuously. […] The oxygen sensors 124a-b read oxygen levels on the fluid path before and after the cell chamber. The inlet readout represents oxygenated media levels leaving the reoxygenation channel and the outlet readout reflects oxygen-depleted media due oxygen consumption of liver tissue. The continuous readouts are captured and recorded by the controller 114 of the microfluidic chip 100.", "values": [{"compound": "C=C(C)[C@H]1Cc2c(ccc3c2O[C@@H]2COc4cc(OC)c(OC)cc4[C@@H]2C3=O)O1", "note": "[Rotenone, rotenone]", "OCR (oxygen consumption rate)": "complete reduction in OCR"}, {"compound": "CC[C@H]1/C=C/C=C/C[C@@H](C)[C@H](O)[C@@](C)(O)C(=O)[C@@H](C)[C@H](O)[C@@H](C)C(=O)[C@@H](C)[C@H](O)[C@@H](C)/C=C/C(=O)O[C@@H]2[C@H](C)[C@H](CC1)O[C@]1(CC[C@H](C)[C@H](C[C@@H](C)O)O1)[C@H]2C", "note": "[oligomycin]", "OCR (oxygen consumption rate)": "decreased OCR values, but non-zero values"}, {"compound": "FCCP", "OCR (oxygen consumption rate)": "increases OCR to its maximum level"}]}]}
